According to patent US4368194A, “Pharmacologically active amine boranes” (The United States of America as represented by the …, priority 1981, dated 1983):
Read-outs that look alike come from different tables or passages of the source.

How the values were obtained:
CF1 male mice = assay: Writhing reflex (acetic acid); type: in vivo; conditions: for Writhing Reflex: mice; for inhibition of the writhing reflex: text summary of Table II
Procedure: CF1 male mice were administered test drugs at 20 mg/kg intraperitoneally 20 min (see Hendershat et al., J. Pharmacol Exp. Ther. 125, 237 1959) prior to the administration of 0.5 ml of 0.6% acetic acid (Vingar et al., European J. PHarmacol, 37, 23 1976). After 5 min the number of stretches, characterized by repeated contractures of the abdominal musculature accompanied by extension of the hind limbs, was counted for the next 10 min. The control mice had 78 stretch reflexes per 10 min.

[1] = tested on: carrageenan induced edema in mouse foot pads; assay: Anti-inflammatory screen (carrageenan induced foot edema); type: in vivo, mice; conditions: for Anti-inflammatory Screen: mice; for inhibition of the carrageenan induced edema in mouse foot pads: text summary of Table II
Procedure: CF1 male mice (about 30 g) were administered test drugs at 10 mg/kg in 0.05% polysorbate .80-water intraperitoneally 3 hr and 30 min prior to 0.05 ml of 2% carrageenan in 0.9% saline injected into the plantar surface of the right hind foot. Saline injected into the left hind foot served as a base line. After 3 hr, both feet were excised at the tibiotarsal (ankle) joint according to the modified (Roszkowski et al., J. Pharm. Exp. Ther., 179, 114 1971) method of Winter, resulting in an 87 mg net increase in the weight of the control animals' feet.

Sprague Dawley rats = assay: Red and white blood cell counts after 3 weeks dosing; type: in vivo
Description: Hematocrits were also obtained.

Cathepsin [2] = assay: Lysosomal free cathepsin activity, liver homogenate; type: biochemical, rats; conditions: 5 μmoles; for Liver % Free Cathepsin Activity, pH5: in vitro, 20 min
Procedure: (§1) Lysosomal enzymatic assays - Sprague Dawley rats (about 160 g) were sacrificed, the liver excised, and a 10% homogenate (4x) in 0.25 M sucrose and 0.001 M (ethylenedinitrilo) tetra acetic acid, ph 7.2 was prepared.
(§2) Acid phosphatase activity (Gianetto et al., Biochem J., 59, 433 1955) was carried out by incubating with 0.1 Mβ-glycerol phosphate in 0.1 M acetate, pH 5.0 with 5 μmoles of test drugs in 1% carboxymethylcellulose (CMC) for 20 min with liver homogenate and 60 min with resuspended PMNs. Lysosome enzymes were released by 0.02% alkyl phenoxy polyethoxy ethanol-100 to obtain the total enzymatic activity. The reaction was stopped with 10% trichloroacetic acid and the solution centrifuged. Aliquots of the supernatant were assayed for inorganic phophate content by the method of Chen et al., Anal Chem., 28, 1756 (1956). Percent free acid phosphatase was calculated. Cathepsin activity was determined in an analagous manner except the substrate used was 2% azocasein (Schleuning et al., Methods in Enzymology, XLV, 330 1976) in 0.1 M acetate buffer pH 5.0. The supernatant was assayed for acid soluble peptide fragments at 366 nm. Percent free cathepsin activity was calculated.

[3] = target: T1, prostaglandin synthetase from beef seminal vesicle (Bos taurus, UniProt O62664); assay: Prostaglandin synthetase activity; type: biochemical; conditions: 10^-6 M; for activity at 1 µM: 1 h, read-out: Prostaglandin Synthesis
T1 construct: purchased; host or cells: beef seminal vesicle
T1 sequence (O62664 25-600): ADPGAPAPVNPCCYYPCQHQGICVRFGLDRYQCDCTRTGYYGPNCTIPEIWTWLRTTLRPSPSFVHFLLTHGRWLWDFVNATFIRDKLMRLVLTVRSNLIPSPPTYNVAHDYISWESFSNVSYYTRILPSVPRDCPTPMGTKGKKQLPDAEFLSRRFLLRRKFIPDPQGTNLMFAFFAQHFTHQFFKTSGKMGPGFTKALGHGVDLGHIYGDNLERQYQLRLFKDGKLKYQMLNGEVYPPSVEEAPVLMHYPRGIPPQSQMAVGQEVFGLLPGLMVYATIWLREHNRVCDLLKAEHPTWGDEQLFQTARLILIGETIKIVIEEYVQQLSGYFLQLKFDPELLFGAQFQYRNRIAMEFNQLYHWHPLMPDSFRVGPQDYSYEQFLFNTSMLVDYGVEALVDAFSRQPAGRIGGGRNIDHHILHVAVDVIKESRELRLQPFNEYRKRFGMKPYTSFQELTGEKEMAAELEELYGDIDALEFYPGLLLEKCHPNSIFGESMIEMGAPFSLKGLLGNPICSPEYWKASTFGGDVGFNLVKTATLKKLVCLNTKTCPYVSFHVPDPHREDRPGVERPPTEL
Procedure: After 1 hr at 37° C. the reaction was stopped with 1 N HCl and extracted with ethyl ether and evaporated. […] The plates were dried and developed in iodine vapor and with the use of prostaglandin standards the appropriate areas were scraped and counted for ^3 H content. Indometacin was used as a standard at 10^-4 M concentration. Test drugs were used at 10^-6 M.

Cathepsin [4] = assay: Lysosomal free cathepsin activity, PMNs; type: cell-based; conditions: 5 μmoles, in vitro; 60 min
Procedure: (§3) Polymorphonuclear neutrophils (PMNs) were collected from the peritoneal cavity four hr after the injection of 35 ml of 0.5% oyster glycogen in isotonic saline (Orange et al., J. Exp. Med., 127, 767 1968). The PMNs were centrifuged down at 800 g for 20 min, washed, and resuspended in minumen essential medium (MEM) with 10% fetal calf serum pH 7.4.
as §2

Acid phosphatase [5] = assay: Lysosomal free acid phosphatase activity, PMNs; type: cell-based; conditions: 5 μmoles; for PMNs % Free Acid Phosphatase Activity, pH5: in vitro, 60 min
Procedure: as §3, §2

Acid phosphatase [6] = assay: Lysosomal free acid phosphatase activity, liver homogenate; type: biochemical, rats; conditions: 5 μmoles, in vitro; 20 min
Procedure: as §1, §2

liver mitochondria [7] = assay: Oxidative phosphorylation, α-ketoglutarate as substrate; type: biochemical, rats; conditions: 5 μmoles; for Oxidative Phosphorylation α Ketoglutarate State 3: ADP stimulated respiration; for Oxidative Phosphorylation α Ketoglutarate State 4: basal respiration
Procedure: (§4) Basal and adenosine diphosphate stimulated respiration on 10% liver homogenates was measured using succinate or αketoglutarate as substrate. See Glatt, et al., supra. The reaction vessel contained sucrose 55μ moles, KCl 22μ moles, K2 HPO4 22μ moles, test compounds at 5μ moles in 1% CMC and sodium succinate 90μ moles or αketoglutarate 60μ moles in a total volume of 1.8 ml. […] The rate of respiration was calculated at μl of O2 consumed/hr/mg wet weight of liver.

cAMP levels in PMNs = assay: Cyclic-3',5'-adenosine monophosphate levels (cAMP) in PMNs; type: cell-based
Procedure: as §3
Isolated PMNs were incubated with test drugs at 5μ moles for 1 hr at 37° C. in MEM at pH 7.4. The reaction was stopped with 6% trichloroacetic acid. The cyclic-3',5'-adenosine monophosphate levels were determined by the radioimmunoassay of Gilman, Proc. Natl. Acad. Sci. (USA), 67, 305 (1970), using 3H(G)-cyclic-3',5'-adenosine monophosphate (39.8 Cu/m mol). Results were calculated in p mole/10^7 PMNs cells.

liver mitochondria [8] = assay: Oxidative phosphorylation, succinate as substrate; type: biochemical, rats; conditions: 5 μmoles; for Oxidative Phosphorylation Succinate State 3: ADP stimulated respiration; for Oxidative Phosphorylation Succinate State 4: basal respiration
Procedure: as §4

in vivo = conditions: mouse
[9] = dosing for three weeks intraperitoneally, rats
[10] = 1 h, pH 7.4, 5 μmoles, in vitro, read-out: PMNs cAMP Level
[11] = 1 h, pH 7.4, read-out: PMNs cAMP Level

Row | Compound | Writhing Reflex (CF1 male mice; 20 mg/kg intraperitoneally) | inhibition of the writhing reflex (CF1 male mice) | Anti-inflammatory Screen ([1]; 10 mg/kg × 2 intraperitoneally) | inhibition of the carrageenan induced edema in mouse foot pads [1] | alteration of the red blood or white blood cell count/cu mm (Sprague Dawley rats; [9]) | Liver % Free Cathepsin Activity, pH5 (Cathepsin [2]) | activity at 1 µM [3] | PMNs % Free Cathespin Activity, pH5 (Cathepsin [4]) | PMNs % Free Acid Phosphatase Activity, pH5 (Acid phosphatase [5]) | Liver % Free Acid Phosphatase Activity, pH5 (Acid phosphatase [6]) | Oxidative Phosphorylation α Ketoglutarate State 3 (liver mitochondria [7]) | Oxidative Phosphorylation α Ketoglutarate State 4 (liver mitochondria [7]) | activity at 5 µmol (cAMP levels in PMNs; [10]) | Oxidative Phosphorylation Succinate State 3 (liver mitochondria [8]) | Oxidative Phosphorylation Succinate State 4 (liver mitochondria [8]) | Anti-inflammatory Screen ([1]; 1/3 dose (of 10 mg/kg × 2)) | LD50 (in vivo) | activity at 5 µmol (cAMP levels in PMNs; [11]) | both states 3 and 4 respiration with succinate (liver mitochondria [8]) | further results
1 | [BH3-][NH+]1CCOCC1 [Compound II, O(CH2 CH2)2 NH.BH3] | 15 % Control | 80% | 55 % Control | at least 40% | no alteration | 107 ± 6 % Control | 100 ± 5% | 93 ± 7 % Control | 79 ± 5 % Control | 75 ± 8 % Control | 50 ± 11 % Control | 97 ± 29 % Control | 107% | 66 ± 10 % Control | 115 ± 15 % Control | – | – | – | – | –
2 | C[N+]1([BH2-]C#N)CCOCC1 [XIV, O(CH2 CH2)2 N(CH3).BH2 CN] | – | – | – | – | no alteration | 13 ± 5 % Control | 38 ± 3% | 37 ± 5 % Control | 50 ± 3 % Control | 68 ± 7 % Control | 51 ± 16 % Control | 140 ± 47 % Control | – | 36 ± 5 % Control | 62 ± 10 % Control | 91 % Control | 23 mg/kg | 165% | inhibited | Writhing Reflex (CF1 male mice; 1/3 dose (of 20 mg/kg)): 78 % Control; inhibition of free proteolytic cathepsin activity of liver (Cathepsin [2]): at least 75%; inhibition of free acid phosphatase activity in PMNs (Acid phosphatase [5]): 50%; activation at 5 µmol (cAMP levels in PMNs; 1 h, read-out: increase of cyclic adenosine monophosphate levels in PMNs): 65%
3 | N#C[BH2-][n+]1ccccc1 [XV, pyridinecyanoborane] | 80 % Control | – | – | – | – | 57 ± 4 % Control | 58 ± 3% | 49 ± 7 % Control | 57 ± 4 % Control | 79 ± 3 % Control | 52 ± 15 % Control | 112 ± 42 % Control | 110% | 57 ± 16 % Control | 124 ± 16 % Control | 83 % Control | 25 mg/kg | – | – | inhibition at 1 µM ([3]; read-out: inhibition of prostaglandin synthesis): > 30%
4 | N#C[BH2-][NH2+]CC[NH2+][BH2-]C#N [XX, Ethylenediamine-bis(cyanoborane)] | 95 % Control | – | 87 % Control | – | – | 80 ± 7 % Control | 81 ± 5% | 57 ± 2 % Control | 100 ± 10 % Control | 77 ± 8 % Control | 25 ± 8 % Control | 50 ± 18 % Control | – | 10 ± 5 % Control | 13 ± 5 % Control | – | > 150 mg/kg | 28% | inhibited | both states 3 and 4 respiration with α-ketoglutarate (liver mitochondria [7]): inhibited
5 | [Na{H3 N.BH2 (CN)}6 ]I [Compound X] | 12 % Control | 80% | 57 % Control | at least 40% | – | – | – | 0 ± 3 % Control | – | – | – | – | – | – | – | – | – | – | – | alteration of the red blood or white blood cell count/cu mm (Sprague Dawley rats; rat, in vivo, ip): no alteration; Prostaglandin Synthesis ([3]; 60 min, 1 µM): 42 ± 5 % Control; PMNs cAMP Level (cAMP levels in PMNs; 5 μmoles, in vitro, 60 min): 361 % Control; increase of cyclic adenosine monophosphate levels in PMNs (cAMP levels in PMNs; in vitro incubation, 5 μmoles): 261%
